# Patent US20210038587A1, “METHODS AND COMPOSITIONS FOR TREATING NON-ERK MAPK PATHWAY INHIBITOR-RESISTANT CANCERS” (BIOMED VALLEY DISCOVERIES, INC., priority 2013, published 2021)
# Assays:
# [1] = tested on: A375, MIAPaCa-2, HCT116, Colo205, HT-29, and AN3Ca cells; test: Reverse Phase Protein Analysis (RPPA), all six cell lines; assay type: cell-based; conditions: 10 μM, 6 hours
# Procedure: (§1) Control wells were treated with DMSO at 0.1% (v/v) for 6 hours prior to cell lysate generation. Samples were then analyzed using reverse-phase protein microarray technology (Theranostics Health).
# (§2) Cell lines with common alterations in BRAF and RAS were assayed: BRAF^V600E mutant lines A375, Colo205, and HT29; KRAS^G12C-mutant cell line MIAPACa-2; KRAS^G13D-mutant cell line HCT116; and AN3Ca with atypical HRAS^F82L mutation. Changes in protein levels are shown as a percentage change from dimethyl sulfoxide (DMSO)-treated parental control (FIG. 32A and Table 23).
# Colo205 = test: Reverse Phase Protein Analysis (RPPA); assay type: cell-based, human; conditions: % change from DMSO (matched cell line)
# A375 = test: Reverse Phase Protein Analysis (RPPA); assay type: cell-based, human; conditions: % change from DMSO (matched cell line)
# Procedure: as §1, §2
# HCT116 = test: Reverse Phase Protein Analysis (RPPA); assay type: cell-based, human; conditions: % change from DMSO (matched cell line)
# Procedure: as §1, §2
# MIAPaCa-2 = test: Reverse Phase Protein Analysis (RPPA); assay type: cell-based; conditions: MIAPaca2; % change from DMSO (matched cell line)
smiles,measurement,setting,value
Cn1nccc1Nc1nccc(-c2ccn([C@H](CO)c3ccc(Cl)c(F)c3)c(=O)c2)n1 [GDC-0994],"pERK1/2 (ERK1/2-T202, -Y204)",[1],markedly increased pERK1/2
same,survival marker pBAD,[1],only modest inhibition of pBAD
same,Avg (4ebp1 T70),Colo205,−36.69%
same,Avg (Akt S473),Colo205,4.45%
same,Avg (Akt),Colo205,−11.83%
same,Avg (Bad S136),Colo205,4%
same,Avg (Bad S155),Colo205,−9.11%
same,Avg (Bak),Colo205,6.58%
same,Avg (Bax),Colo205,8.2%
same,Avg (Bcl 2),Colo205,17.95%
same,Avg (Bcl2 S70),Colo205,−9%
same,Avg (Bcl 2 T56),Colo205,−4.6%
same,Avg (Bim),Colo205,20.59%
same,Avg (CREB S133),Colo205,−11.85%
same,Avg (Caspase 3 CL D175),Colo205,23.06%
same,Avg (Caspase 7 Cl D198),Colo205,1.37%
same,Avg (Chk1),Colo205,5.06%
same,Avg (Chk1 S345),Colo205,6.08%
same,Avg (Cyclin D1),Colo205,−28.02%
same,Avg (ERK 1 2),Colo205,−3.33%
same,Avg (ERK 1 2 T202 Y204),Colo205,20.01%
same,Avg (MAK1 S360),Colo205,0.82%
same,Avg (Mcl1),Colo205,2.5%
same,Avg (Raptor S792),Colo205,−9.04%
same,Avg (Raptor),Colo205,−5.48%
same,Avg (Rictor),Colo205,−5.04%
same,Avg (Stat1),Colo205,7.26%
same,Avg (Stat3),Colo205,−0.86%
same,Avg (bad S112),Colo205,−6.12%
same,Avg (c Fos),Colo205,−21.33%
same,Avg (c Myc),Colo205,−6.22%
same,Avg (mTOR S2448),Colo205,−7.36%
same,Avg (mTOR S2481),Colo205,0.96%
same,Avg (mTOR),Colo205,3.39%
same,Avg (p70 S6 Kinase),Colo205,5.83%
same,Avg (p90 RSK S380),Colo205,−57.5%
same,Avg(S6 Ribo Prot S235 236),Colo205,−91.19%
same,Avg(S6 Ribo Prot S240 244),Colo205,−91.59%
same,Avg(Tuberin TSC2 Y1571),Colo205,0.66%
same,Avg(p70 S6 Kinase S371 S394),Colo205,−13.02%
same,Avg(p70 S6 Kinase T389 T412),Colo205,−32.2%
same,Avg (4ebp1 T70),A375,−29.47%
same,Avg (Akt S473),A375,53.66%
same,Avg (Akt),A375,−20.7%
same,Avg (Bad S136),A375,−6.21%
same,Avg (Bad S155),A375,−13.31%
same,Avg (Bak),A375,2.76%
same,Avg (Bax),A375,3.97%
same,Avg (Bcl 2),A375,−3.13%
same,Avg (Bcl2 S70),A375,6.3%
same,Avg (Bcl 2 T56),A375,−4.1%
same,Avg (Bim),A375,9.8%
same,Avg (CREB S133),A375,−1.18%
same,Avg (Caspase 3 CL D175),A375,−16.74%
same,Avg (Caspase 7 Cl D198),A375,−5.53%
same,Avg (Chk1),A375,−7.72%
same,Avg (Chk1 S345),A375,−18.35%
same,Avg (Cyclin D1),A375,−81.65%
same,Avg (ERK 1 2),A375,31.55%
same,Avg (ERK 1 2 T202 Y204),A375,142.37%
same,Avg (MAK1 S360),A375,−5.21%
same,Avg (Mcl1),A375,−9.09%
same,Avg (Raptor S792),A375,−15.93%
same,Avg (Raptor),A375,−14.32%
same,Avg (Rictor),A375,−23.29%
same,Avg (Stat1),A375,−5.67%
same,Avg (Stat3),A375,14.24%
same,Avg (bad S112),A375,−55.32%
same,Avg (c Fos),A375,−12.46%
same,Avg (c Myc),A375,−9.11%
same,Avg (mTOR S2448),A375,−23.61%
same,Avg (mTOR S2481),A375,−19.37%
same,Avg (mTOR),A375,−6.2%
same,Avg (p70 S6 Kinase),A375,−18.11%
same,Avg (p90 RSK S380),A375,−60.74%
same,Avg(S6 Ribo Prot S235 236),A375,−87.61%
same,Avg(S6 Ribo Prot S240 244),A375,−80.3%
same,Avg(Tuberin TSC2 Y1571),A375,−16.74%
same,Avg(p70 S6 Kinase S371 S394),A375,−17.34%
same,Avg(p70 S6 Kinase T389 T412),A375,−31.9%
same,Avg (4ebp1 T70),HCT116,20.5%
same,Avg (Akt S473),HCT116,4.69%
same,Avg (Akt),HCT116,−6.13%
same,Avg (Bad S136),HCT116,−1.24%
same,Avg (Bad S155),HCT116,−19.71%
same,Avg (Bak),HCT116,−1.74%
same,Avg (Bax),HCT116,−20.11%
same,Avg (Bcl 2),HCT116,−4.56%
same,Avg (Bcl2 S70),HCT116,−12.53%
same,Avg (Bcl 2 T56),HCT116,−11.96%
same,Avg (Bim),HCT116,6.2%
same,Avg (CREB S133),HCT116,−8.56%
same,Avg (Caspase 3 CL D175),HCT116,−8.36%
same,Avg (Caspase 7 Cl D198),HCT116,−13.99%
same,Avg (Chk1),HCT116,2.28%
same,Avg (Chk1 S345),HCT116,−18.77%
same,Avg (Cyclin D1),HCT116,−63.59%
same,Avg (ERK 1 2),HCT116,−1.9%
same,Avg (ERK 1 2 T202 Y204),HCT116,526.64%
same,Avg (MAK1 S360),HCT116,−12.93%
same,Avg (Mcl1),HCT116,−4.77%
same,Avg (Raptor S792),HCT116,−15.77%
same,Avg (Raptor),HCT116,−6.2%
same,Avg (Rictor),HCT116,−10.98%
same,Avg (Stat1),HCT116,−6.32%
same,Avg (Stat3),HCT116,−0.25%
same,Avg (bad S112),HCT116,−12.36%
same,Avg (c Fos),HCT116,−10.36%
same,Avg (c Myc),HCT116,−12.03%
same,Avg (mTOR S2448),HCT116,−19.33%
same,Avg (mTOR S2481),HCT116,−18.34%
same,Avg (mTOR),HCT116,−4.85%
same,Avg (p70 S6 Kinase),HCT116,−9.9%
same,Avg (p90 RSK S380),HCT116,−22.25%
same,Avg(S6 Ribo Prot S235 236),HCT116,−94.82%
same,Avg(S6 Ribo Prot S240 244),HCT116,−95.1%
same,Avg(Tuberin TSC2 Y1571),HCT116,−9.4%
same,Avg(p70 S6 Kinase S371 S394),HCT116,−11.47%
same,Avg(p70 S6 Kinase T389 T412),HCT116,−24.73%
same,Avg (4ebp1 T70),MIAPaCa-2,−34.01%
same,Avg (Akt S473),MIAPaCa-2,2.24%
same,Avg (Akt),MIAPaCa-2,4.33%
same,Avg (Bad S136),MIAPaCa-2,2.25%
same,Avg (Bad S155),MIAPaCa-2,8.18%
same,Avg (Bak),MIAPaCa-2,−8.11%
same,Avg (Bax),MIAPaCa-2,3.48%
same,Avg (Bcl 2),MIAPaCa-2,−7.8%
same,Avg (Bcl2 S70),MIAPaCa-2,−6.78%
same,Avg (Bcl 2 T56),MIAPaCa-2,−2.12%
same,Avg (Bim),MIAPaCa-2,5.07%
same,Avg (CREB S133),MIAPaCa-2,−21.37%
same,Avg (Caspase 3 CL D175),MIAPaCa-2,10.47%
same,Avg (Caspase 7 Cl D198),MIAPaCa-2,−4.92%
same,Avg (Chk1),MIAPaCa-2,6.56%
same,Avg (Chk1 S345),MIAPaCa-2,32.96%
same,Avg (Cyclin D1),MIAPaCa-2,−31.92%
same,Avg (ERK 1 2),MIAPaCa-2,−6.88%
same,Avg (ERK 1 2 T202 Y204),MIAPaCa-2,199.59%
same,Avg (MAK1 S360),MIAPaCa-2,−5.25%
same,Avg (Mcl1),MIAPaCa-2,−1.79%
same,Avg (Raptor S792),MIAPaCa-2,2.18%
same,Avg (Raptor),MIAPaCa-2,22.43%
same,Avg (Rictor),MIAPaCa-2,−11.25%
same,Avg (Stat1),MIAPaCa-2,7.4%
same,Avg (Stat3),MIAPaCa-2,−9.44%
same,Avg (bad S112),MIAPaCa-2,−10.08%
same,Avg (c Fos),MIAPaCa-2,−16.12%
same,Avg (c Myc),MIAPaCa-2,−7.84%
same,Avg (mTOR S2448),MIAPaCa-2,11.84%
same,Avg (mTOR S2481),MIAPaCa-2,3.65%
same,Avg (mTOR),MIAPaCa-2,−9.8%
same,Avg (p70 S6 Kinase),MIAPaCa-2,−3.25%
same,Avg (p90 RSK S380),MIAPaCa-2,−39.09%
same,Avg(S6 Ribo Prot S235 236),MIAPaCa-2,−67.9%
same,Avg(S6 Ribo Prot S240 244),MIAPaCa-2,−75.59%
same,Avg(Tuberin TSC2 Y1571),MIAPaCa-2,5.71%
same,Avg(p70 S6 Kinase S371 S394),MIAPaCa-2,−14.4%
same,Avg(p70 S6 Kinase T389 T412),MIAPaCa-2,−40.99%
